Data: patent publication US8952024B2, “Herbicidal pyrimidone derivatives” (E I du Pont de Nemours and Company, priority 2009, dated 2015)

How the values were obtained:
Type in all cases: in vivo
[1] = tested on: barnyardgrass (Echinochloa crus-galli); test: Test B flooded paddy test
In short: (§1)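 Rice, umbrella sedge, ducksalad and barnyardgrass were grown to the 2-leaf stage, flooded to 3 cm, and compound was applied directly to the paddy water, with that depth kept throughout. After 13 to 15 days in the greenhouse, plants were visually rated against controls on a 0 (no effect) to 100 (complete control) scale.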

[2] = tested on: ducksalad (Heteranthera limosa); test: Test B flooded paddy test
In short: as §1

rice (Oryza sativa) = test: Test B flooded paddy test
In short: as §1

[3] = tested on: umbrella sedge (Cyperus difformis); test: Test B flooded paddy test
In short: as §1

[4] = tested on: velvetleaf (Abutilon theophrasti); test: Test A pre-/postemergence plant response
In short: (§2)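 Plants grown from seed in a loam soil and sand mix received test compounds both as a preemergence soil spray and, at the same time, as a postemergence spray at the one- to two-leaf stage. Injury was judged visually against untreated controls roughly ten days later, 0 meaning no effect and 100 complete control.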

[5] = tested on: giant foxtail (Setaria faberii); test: Test A pre-/postemergence plant response
In short: as §2

[6] = tested on: barnyardgrass (Echinochloa crus-galli); test: Test A pre-/postemergence plant response
In short: as §2

[7] = tested on: wheat (Triticum aestivum); test: Test A pre-/postemergence plant response
In short: as §2

[8] = tested on: large crabgrass (Digitaria sanguinalis); test: Test A pre-/postemergence plant response
In short: as §2

[9] = tested on: morningglory (Ipomoea spp.); test: Test A pre-/postemergence plant response
In short: as §2

[10] = tested on: pigweed (Amaranthus retroflexus); test: Test A pre-/postemergence plant response
In short: as §2

corn (Zea mays) = test: Test A pre-/postemergence plant response
In short: as §2

[11] = 250 g ai/ha, flooded paddy test, visual rating on 0 to 100 scale (0 no effect, 100 complete control) after 13 to 15 days
[12] = Flood (flooded paddy test), 62 g ai/ha, scale 0 to 100, 0 is no effect, 100 is complete control, 13 to 15 days
[13] = Postemergence, 125 g ai/ha, visual injury, 0 to 100 scale (0 no effect, 100 complete control), approx. ten days
[14] = Postemergence, 500 g ai/ha, 0 to 100 scale, 0 = no effect, 100 = complete control, approx. ten days
[15] = Preemergence, 125 g ai/ha, 0 to 100 scale, 0 = no effect, 100 = complete control
[16] = Preemergence, 500 g ai/ha, visual injury, 0 to 100 scale (0 no effect, 100 complete control), approx. ten days

Cc1ccc(-n2c(-c3ccccc3)ncc(C(=O)C3=C(O)CCCC3=O)c2=O)c(C)c1 [Compound 28]
20: Plant response rating, Flood, Barnyardgrass [1, 11] | Plant response rating, Velvetleaf [4, 15] | Plant response rating, Crabgrass, Large [8, 15] | Plant response rating, Morningglory [9, 15]
30: Foxtail, Giant plant response rating [5, 13] | Plant response rating, Foxtail, Giant [5, 16] | Barnyardgrass plant response rating [6, 13]
40: Crabgrass, Large plant response rating [8, 13]
70: Plant response rating, Ducksalad [2, 12] | Plant response rating, Sedge, Umbrella [3, 12] | Plant response rating, Barnyardgrass [6, 16]
85: Plant response rating, Flood, Ducksalad [2, 11]
90: Plant response rating, Barnyardgrass [6, 14]
80: Plant response rating, Flood, Sedge, Umbrella [3, 11] | Plant response rating, Velvetleaf [4, 16] | Plant response rating, Foxtail, Giant [5, 14] | Plant response rating, Crabgrass, Large [8, 14] | Plant response rating, Morningglory [9, 16] | Plant response rating, Pigweed [10, 15]
100: Velvetleaf plant response rating [4, 13] | Plant response rating, Velvetleaf [4, 14] | Pigweed plant response rating [10, 13] | Plant response rating, Pigweed [10, 14] | Plant response rating, Pigweed [10, 16]
60: Plant response rating, Crabgrass, Large [8, 16]
0: Plant response rating, Flood, Rice (rice (Oryza sativa); [11]) | Plant response rating, Rice (rice (Oryza sativa); [12]) | Plant response rating, Foxtail, Giant [5, 15] | Wheat plant response rating [7, 13] | Plant response rating, Wheat [7, 14] | Plant response rating, Wheat [7, 15] | Plant response rating, Wheat [7, 16] | Morningglory plant response rating [9, 13] | Corn plant response rating (corn (Zea mays); [13]) | Plant response rating, Corn (corn (Zea mays); [14]) | Plant response rating, Corn (corn (Zea mays); [15]) | Plant response rating, Corn (corn (Zea mays); [16])
10: Plant response rating, Barnyardgrass [1, 12] | Plant response rating, Barnyardgrass [6, 15] | Plant response rating, Morningglory [9, 14]
